From the NIST ThermoML archive (doi:10.1021/je301164d)

Conditions: Fluid (supercritical or subcritical phases)

CC(F)(F)CC(F)(F)F [1,1,1,3,3-pentafluorobutane]
Conditions	speed of sound [m/s]
250 K, 1105.2 kPa	921.65
250 K, 2105.8 kPa	926.73
250 K, 3106.3 kPa	931.74
250 K, 4106.9 kPa	936.7
250 K, 5107.4 kPa	941.59
250 K, 6108.3 kPa	946.43
250 K, 7108.9 kPa	951.22
250 K, 8108.1 kPa	955.95
250 K, 9108.8 kPa	960.64
250 K, 10110 kPa	965.28
250 K, 12611 kPa	976.67
250 K, 15113 kPa	987.78
250 K, 17614 kPa	998.62
250 K, 20116 kPa	1009.2
250 K, 25120 kPa	1029.8
250 K, 30123 kPa	1049.5
250 K, 35127 kPa	1068.4
250 K, 40130 kPa	1086.7
250 K, 45133 kPa	1104.4
250 K, 50137 kPa	1121.5
260 K, 1104.3 kPa	881.57
260 K, 2104.8 kPa	886.96
260 K, 3105.3 kPa	892.27
260 K, 4105.9 kPa	897.52
260 K, 5106.3 kPa	902.7
260 K, 6107.9 kPa	907.82
260 K, 7109.2 kPa	912.89
260 K, 8109.9 kPa	917.88
260 K, 9110.7 kPa	922.82
260 K, 10112 kPa	927.71
260 K, 12613 kPa	939.68
260 K, 15115 kPa	951.34
260 K, 17617 kPa	962.7
260 K, 20118 kPa	973.79
260 K, 25122 kPa	995.21
260 K, 30126 kPa	1015.7
260 K, 35129 kPa	1035.4
260 K, 40133 kPa	1054.3
260 K, 45136 kPa	1072.6
260 K, 50140 kPa	1090.3
260 K, 60146 kPa	1124.1
260 K, 70153 kPa	1155.9
260 K, 80160 kPa	1186.1
260 K, 90167 kPa	1214.9
260 K, 100174 kPa	1242.4
280 K, 1104.4 kPa	803.31
280 K, 2104.9 kPa	809.41
280 K, 3105.4 kPa	815.42
280 K, 4106 kPa	821.34
280 K, 5106.6 kPa	827.16
280 K, 6107.8 kPa	832.89
280 K, 7108.5 kPa	838.55
280 K, 8109.3 kPa	844.12
280 K, 9110.2 kPa	849.62
280 K, 10111 kPa	855.04
280 K, 12613 kPa	868.29
280 K, 15114 kPa	881.13
280 K, 17616 kPa	893.6
280 K, 20118 kPa	905.71
280 K, 25121 kPa	929
280 K, 30124 kPa	951.17
280 K, 35128 kPa	972.34
280 K, 40131 kPa	992.62
280 K, 45135 kPa	1012.1
280 K, 50138 kPa	1030.9
280 K, 60145 kPa	1066.6
280 K, 70152 kPa	1100.2
280 K, 80159 kPa	1131.9
280 K, 90166 kPa	1162
280 K, 100172 kPa	1190.6
300 K, 1104.5 kPa	727.1
300 K, 2105 kPa	734.06
300 K, 3105.5 kPa	740.9
300 K, 4106 kPa	747.61
300 K, 5107 kPa	754.19
300 K, 6107.6 kPa	760.65
300 K, 7107.1 kPa	766.96
300 K, 8107.8 kPa	773.21
300 K, 9108.4 kPa	779.34
300 K, 10110 kPa	785.37
300 K, 12612 kPa	800.06
300 K, 15114 kPa	814.23
300 K, 17616 kPa	827.91
300 K, 20117 kPa	841.15
300 K, 25121 kPa	866.44
300 K, 30125 kPa	890.34
300 K, 35129 kPa	913.06
300 K, 40132 kPa	934.74
300 K, 45136 kPa	955.48
300 K, 50139 kPa	975.38
300 K, 60146 kPa	1013.1
300 K, 70153 kPa	1048.3
300 K, 80160 kPa	1081.4
300 K, 90167 kPa	1112.7
300 K, 100174 kPa	1142.5
319.99 K, 2104.9 kPa	660.37
319.99 K, 3105.5 kPa	668.24
319.99 K, 4106.3 kPa	675.92
319.99 K, 5107.7 kPa	683.41
319.99 K, 6108.6 kPa	690.74
319.99 K, 7109.3 kPa	697.91
319.99 K, 8110 kPa	704.93
320 K, 9111.2 kPa	711.77
320 K, 10112 kPa	718.52
320 K, 12614 kPa	734.86
320 K, 15115 kPa	750.5
320 K, 17617 kPa	765.53
320 K, 20119 kPa	779.98
320 K, 25123 kPa	807.44
320 K, 30126 kPa	833.19
320 K, 35130 kPa	857.51
320 K, 40134 kPa	880.59
320 K, 45137 kPa	902.59
320 K, 50141 kPa	923.63
320 K, 60148 kPa	963.25
320 K, 70155 kPa	1000.1
320 K, 80162 kPa	1034.6
320 K, 90169 kPa	1067.1
320 K, 100176 kPa	1098
320.01 K, 1103.1 kPa	652.28
340 K, 1105.8 kPa	578.15
340 K, 2106.4 kPa	587.65
340 K, 3107 kPa	596.83
340 K, 4107.5 kPa	605.73
340 K, 5108.1 kPa	614.36
340 K, 6109.1 kPa	622.75
340 K, 7109.7 kPa	630.92
340 K, 8108.9 kPa	638.86
340 K, 9109.4 kPa	646.62
340 K, 10110 kPa	654.2
340 K, 12611 kPa	672.43
340 K, 15113 kPa	689.74
340 K, 17614 kPa	706.24
340 K, 20116 kPa	722.03
340 K, 25119 kPa	751.78
340 K, 30122 kPa	779.47
340 K, 35124 kPa	805.42
340 K, 40128 kPa	829.93
340 K, 45131 kPa	853.19
340 K, 50135 kPa	875.34
340 K, 60142 kPa	916.86
340 K, 70150 kPa	955.26
340 K, 80157 kPa	991.12
340 K, 90164 kPa	1024.8
340 K, 100171 kPa	1056.7
360 K, 1102.1 kPa	503.74
360 K, 2102.7 kPa	515.2
360 K, 3103.3 kPa	526.14
360 K, 4104 kPa	536.64
360 K, 5104.8 kPa	546.73
360 K, 6106.2 kPa	556.45
360 K, 7106.9 kPa	565.84
360 K, 8107.7 kPa	574.94
360 K, 9108.4 kPa	583.75
360 K, 10109 kPa	592.32
360 K, 12611 kPa	612.74
360 K, 15113 kPa	631.92
360 K, 17615 kPa	650.07
360 K, 20117 kPa	667.31
360 K, 25120 kPa	699.5
360 K, 30124 kPa	729.19
360 K, 35127 kPa	756.83
360 K, 40130 kPa	782.78
360 K, 45134 kPa	807.28
360 K, 50137 kPa	830.52
360 K, 60144 kPa	873.89
360 K, 70151 kPa	913.8
360 K, 80158 kPa	950.91
360 K, 90165 kPa	985.68
360 K, 100172 kPa	1018.5
379.99 K, 1100.8 kPa	427.28
379.99 K, 2101.7 kPa	441.66
379.99 K, 3102.1 kPa	455.12
379.99 K, 4102.7 kPa	467.8
379.99 K, 5103.4 kPa	479.82
379.99 K, 6104.7 kPa	491.27
379.99 K, 7105.5 kPa	502.21
379.99 K, 8106.3 kPa	512.71
379.99 K, 9107.5 kPa	522.81
379.99 K, 10108 kPa	532.54
379.99 K, 12610 kPa	555.5
379.99 K, 15112 kPa	576.81
379.99 K, 17614 kPa	596.76
379.99 K, 20116 kPa	615.56
379.99 K, 25119 kPa	650.34
379.99 K, 30123 kPa	682.08
379.99 K, 35126 kPa	711.42
379.99 K, 40130 kPa	738.79
379.99 K, 45134 kPa	764.51
379.99 K, 50137 kPa	788.83
379.99 K, 60144 kPa	833.97
379.99 K, 70151 kPa	875.31
379.99 K, 80158 kPa	913.6
379.99 K, 90166 kPa	949.39
379.99 K, 100173 kPa	983.05
400 K, 1605.2 kPa	355.52
400 K, 2105.7 kPa	364.94
400 K, 3106.4 kPa	382.38
400 K, 4107.2 kPa	398.31
400 K, 5108.1 kPa	413.05
400 K, 6107.8 kPa	426.8
400 K, 7108.6 kPa	439.76
400 K, 8109.4 kPa	452.03
400 K, 9110.2 kPa	463.7
400 K, 10111 kPa	474.85
400 K, 12613 kPa	500.78
400 K, 15114 kPa	524.48
400 K, 17616 kPa	546.39
400 K, 20118 kPa	566.86
400 K, 25122 kPa	604.31
400 K, 30125 kPa	638.14
400 K, 35128 kPa	669.16
400 K, 40132 kPa	697.92
400 K, 45135 kPa	724.83
400 K, 50138 kPa	750.16
400 K, 60145 kPa	796.98
400 K, 70152 kPa	839.66
400 K, 80159 kPa	879.05
400 K, 90166 kPa	915.76
400 K, 100174 kPa	950.23
419.99 K, 2103.3 kPa	280.02
419.99 K, 3102.8 kPa	305.08
419.99 K, 4103.6 kPa	326.49
419.99 K, 5104.3 kPa	345.41
419.99 K, 6105 kPa	362.51
419.99 K, 7105.6 kPa	378.2
419.99 K, 8106.4 kPa	392.76
419.99 K, 9107.1 kPa	406.4
419.99 K, 10108 kPa	419.26
